# Experimental data published in US20090197853A1, “METHODS AND COMPOSITIONS OF TREATING CANCER” (priority 2005, published 2009).
# Key:
# [1] = system: PC3 prostate cancer cells; test: Cell viability by propidium iodide exclusion, PC3; format: cell-based
# Experimental: Methods: Cellular Viability—Cell viability was determined by using propidium iodide (PI) flow cytometric analysis. Cells from plateau phase cultures grown in T-25 flasks were harvested as described above, except that cells present in the growth medium and wash solution were isolated by centrifugation and included in the analysis. Cells were resuspended in 1 mL PBS, an aliquot of 3×10^5 cells transferred to a 4 mL tube, and the cells isolated by centrifugation. Cell pellets were resuspended in PBS supplemented with 2 μg/mL propidium iodide (Sigma), incubated for 5 minutes at ambient temperature, and subjected to flow cytometric analysis.
# Thioredoxin reductase = conditions: plateau phase PC3 cultures
# Experimental: Methods: Lipoate Reduction. Thioredoxin reductase activity was assessed by measuring the rate of lipoate reduction. In brief, A549 or PC3 cells (10,000 cells/well) were plated on 96-well plates and allowed to adhere overnight and grow two additional days until confluent. Cells were treated with MGd, zinc, or 5% mannitol for 2-4 hours, as indicated. Medium was removed, cells were washed with Hanks Balanced Salt Solution (HBSS), and a solution of 5 mM lipoic acid and 1 mM 5,5′-dithiobis(2-nitrobenzoic acid) in HBSS (100 μL/well) was added. Plates were incubated at ambient temperature in the dark. At chosen time intervals, plate absorbance was measured at 405-650 nm. Plate absorbances were normalized to wells containing neither exogenous zinc nor texaphyrin complex to allow plate-to-plate comparison. In some experiments, L-buthionine-[S,R]-sulfoximine (BSO, 100 μM) was added 24 hours prior to MGd or zinc treatment, to inhibit any contribution to lipoate reduction made by glutathione-dependent pathways (28). Actinomycin D (2.5 μg/mL) or cycloheximide (10 μg/mL), where present, was added 1 hour prior to texaphyrin or zinc treatment. Viability was checked on parallel plates using the tetrazolium dye 3-(4,5-dimethylthiazol-2-yl)-5-(3-carboxymethoxyphenyl)-2-(4-sulfophenyl)-2H-tetrazolium (MTS) following the manufacturers protocol (Promega Corp.).
compound,measurement,setting,value
"CC(=O)[O-].CC(=O)[O-].[Zn+2] [Zn(OAc)2, Zinc acetate]",Increased cell death (propidium iodide exclusion),"[1]; PC3, within 48 hr, at 100 μM zinc",2 fold
same,Cell viability,"[1]; plateau phase PC3, after 24 hr",little effect on cell viability
same,Lipoate reduction,Thioredoxin reductase,inhibited at lower concentrations of zinc
